Tests used:
[1] = tested on: NF-κB; assay: NF-κB luciferase reporter assay in A549/NF-κBLuc cells stimulated with IL-1β; type: cell-based, human; settings: Homo sapiens, A549, A549/NF-κBLuc cells; compound added 1 hour before IL-1β, then 3 hours incubation; luciferase activity; read-out: NF-κB Inhibitory Activity (IC50)
In short: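 A549 cells stably carrying an NF-κB-driven luciferase reporter (pNFκB-Luc, G418-selected) pre-treated with compound for 1 h, then stimulated with IL-1β and incubated a further 3 h. Luciferase signal used to derive IC50 for NF-κB inhibition.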

[2] = tested on: GalN/LPS-stimulated C3H/HeN female mice; assay: In vivo sepsis model (GalN/LPS), compound given intraperitoneally; design: species or system mouse; settings: i.p. 10, 30 or 100 mg/kg immediately after GalN/LPS, vs vehicle group
Description: A mixed solution of N-acetyl galactosamine (GalN, 20 mg, Sigma) and lipopolysaccharide (LPS, 5 μg, Sigma) was intraperitoneally administered as a stimulant to a 7-week-old C3H/HeN female mice and immediately thereafter, the compound of Example 112 suspended in a vehicle (0.5% hydroxypropyl cellulose (HPC), produced by Nippon Soda Co., Ltd.) was intraperitoneally administered to give a dose of 10 mg/kg, 30 mg/kg or 100 mg/kg. The TNF-α mRNA levels and the IL-1β mRNA levels in liver 60 minutes after the administration of stimulant each was measured by the real-time PCR method, and the TNF-α levels in plasma after 90 minutes were measured using the mouse TNF-α ELISA kit (Biosource). In the real-time PCR using PRISM7700 (PE Biosystems Japan) according to the protocol of PCR quantitative System (PE Biosystems Japan), mRNA was extracted from the liver and the TNF-α and IL-1β were detected with cDNA obtained by SuperScript Preamplification System (Lifetech Orient) as a template. For the detection, the following primers and TaqMan probes were used.
The RNA level in each sample was corrected by the expression level of glyceraldehyde 3-phosphate dehydrogenase (GAPDH) gene.
ELISA was performed according to the manual included in the kit. The comparison with the vehicle group was performed by the Dunnett's Multiple Comparison test using Stat-View (SAS Institute).

[3] = tested on: GalN/LPS-stimulated C3H/HeN female mice; assay: Sepsis model (GalN/LPS), compound given orally; type: in vivo, mouse; settings: oral 10, 30 or 100 mg/kg 10 min before GalN/LPS, vs vehicle group; for TNF-α mRNA levels in liver: liver 60 min after stimulant, real-time PCR; for TNF-α levels in plasma: plasma 90 min after stimulant, ELISA
Description: Similarly to Experiment 2, a mixed solution of GalN (20 mg) and LPS (2 μg) was intraperitoneally administered as a stimulant to a 7-week-old C3H/HeN female mice. Ten minutes before that, the compound of Example 112 or the compound of Example 157 each suspended in a vehicle (0.5% HPC) was orally administered to give a dose of 10 mg/kg, 30 mg/kg or 100 mg/kg. The TNF-α mRNA levels in liver 60 minutes after the administration of stimulant were measured by the real-time PCR method, and the TNF-α levels in plasma after 90 minutes were measured using the mouse TNF-α ELISA kit. The comparison with the vehicle group was performed by the Dunnett's Multiple Comparison test using Stat-View.

[4] = tested on: carrageenin-induced foot edema in Wister male rat; assay: Acute inflammation model: carrageenin foot edema, compound given orally; type: in vivo; settings: oral 100 mg/kg immediately after carrageenin; foot volume 2 hours after carrageenin; vs vehicle group
Description: The foot edma ratio was calculated according to the formula: (volume of foot after administration of carrageenin−volume of foot before administration)/volume of foot before administration×100, and shown by the average of foot edma ratio +/−SE.
On the footpad of the right hind leg of a 5-week-old Wister male rat, 0.1 ml of 1 w/v % λ-carrageenin (Sigma) was subcutaneously administered. Immediately thereafter, the compound of Example 112 or the compound of Example 157 each suspended in a vehicle (0.5% HPC) was orally administered to give a dose of 100 mg/kg. As a positive control, indomethacin (sigma) was orally administered to give a dose of 10 mg/kg. The foot edema ratio was calculated according to the formula: (volume of foot 2 hours after administration of carrageenin−volume of foot before administration)/volume of foot before administration×100, using a volume meter (TK-101, manufactured by Unicom). For the comparison between the vehicle group and the drug administered group, a variance test was performed by the F-test and thereafter, Student's t test was performed when the variance was equal, or Aspin-Welch's t test was performed when the variance was not equal.

[5] = liver 60 min after stimulant, real-time PCR

Structure (SMILES) | IC50 [1] | melting point [°C] | also measured
COC1=C(OC)C(=O)C(Cc2ccc(OC(C)=O)c(C(=O)Nc3ccc(C(F)(F)F)cc3)c2)=C(C)C1=O [Example 112, N-[5-(5,6-Dimethoxy-3-methyl-1,4-benzoquinon-2-yl)methyl-2-acetoxybenzoyl]-4-trifluoromethylaniline] | 14 µM | – | IL-1β mRNA levels in liver [2, 5]: suppressed; TNF-α mRNA levels in liver [2, 5]: suppressed dose dependently; TNF-α levels in plasma ([2]; plasma 90 min after stimulant, ELISA): suppressed dose dependently; TNF-α mRNA levels in liver [3]: suppressed dose dependently; TNF-α levels in plasma [3]: suppressed dose dependently; acute inflammation (foot edema) caused by carrageenin [4]: significantly suppressed
COC1=C(OC)C(=O)C(Cc2ccc(O)c(C(=O)Nc3ccc(C(=O)OC(C)(C)C)cc3)c2)=C(C)C1=O [Example 214, tert-Butyl N-[5-(5,6-dimethoxy-3-methyl-1,4-benzoquinon-2-yl)methyl-2-hydroxybenzoyl]-4-aminobenzoate] | 10 µg/mL | 200.5 to 202 | –
COC1=C(OC)C(=O)C(Cc2ccc(O)c(C(=O)Nc3ccc(N4CCOCC4)nc3)c2)=C(C)C1=O [Example 225, N-(6-Morpholinopyridin-3-yl)-5-(5,6-dimethoxy-3-methyl-1,4-benzoquinon-2-yl)methyl-2-hydroxybenzamide] | 24 µg/mL | 102.5 to 105 | –
COC1=C(OC)C(=O)C(Cc2ccc(OC(C)=O)c(C(=O)Nc3cc(OC)ncn3)c2)=C(C)C1=O [Example 228, N-(6-Methoxypyrimidin-4-yl)-5-(5,6-dimethoxy-3-methyl-1,4-benzoquinon-2-yl)methyl-2-acetoxybenzamide] | 64 µg/mL | 138.5 to 141 | –
CC1=C(C)C(=O)C(Cc2ccc(O)c(C(=O)Nc3ccc(C(F)(F)F)cc3)c2)=C(C)C1=O [Example 235, N-[5-(3,5,6-Trimethyl-1,4-benzoquinon-2-yl)methyl-2-hydroxybenzoyl]-4-trifluoromethylaniline] | 5 µg/mL | 233 to 235 | –
CC1=C(C)C(=O)C(Cc2ccc(O)c(C(=O)Nc3cccnc3Cl)c2)=C(C)C1=O [Example 237] | 5 µg/mL | 199 to 201 | –

Now from value to compound, other results behind:

IC50 [1] | melting point [°C] | Structure (SMILES) | also measured
7 µg/mL | 171 to 172.5 | COC1=C(OC)C(=O)C(Cc2ccc(O)c(C(=O)Nc3ccncc3)c2)=C(C)C1=O [Example 157, N-(Pyridin-4-yl)-5-(5,6-dimethoxy-3-methyl-1,4-benzoquinon-2-yl)methyl-2-hydroxybenzamide] | TNF-α mRNA levels in liver [3]: suppressed dose dependently; TNF-α levels in plasma [3]: suppressed dose dependently; acute inflammation (foot edema) caused by carrageenin [4]: significantly suppressed
10 µg/mL | 112 to 114 | COC1=C(OC)C(=O)C(Cc2ccc(O)c(C(=O)Nc3cccnc3OC)c2)=C(C)C1=O [Example 216, N-(2-Methoxypyridin-3-yl)-5-(5,6-dimethoxy-3-methyl-1,4-benzoquinon-2-yl)methyl-2-hydroxybenzamide] | –
66 µg/mL | 130 to 132 | COC1=C(OC)C(=O)C(Cc2ccc(O)c(C(=O)Nc3cc(OC)ccc3OC)c2)=C(C)C1=O [Example 220, N-[5-(5,6-Dimethoxy-3-methyl-1,4-benzoquinon-2-yl)methyl-2-hydroxybenzoyl]-2,5-dimethoxyaniline] | –
46 µg/mL | 178 to 180 | COC1=C(OC)C(=O)C(Cc2ccc(OC)c(C(=O)Nc3cccnc3Cl)c2)=C(C)C1=O [Example 221, N-(2-Chloropyridin-3-yl)-5-(5,6-dimethoxy-3-methyl-1,4-benzoquinon-2-yl)methyl-2-methoxybenzamide] | –
81 µg/mL | 210 to 212.5 | COC1=C(OC)C(=O)C(Cc2ccc(O)c(C(=O)Nc3cccnc3N3CCOCC3)c2)=C(C)C1=O [Example 223, N-(2-Morpholinopyridin-3-yl)-5-(5,6-dimethoxy-3-methyl-1,4-benzoquinon-2-yl)methyl-2-hydroxybenzamide] | –
20 µg/mL | 142 to 144 | COC1=C(OC)C(=O)C(Cc2ccc(O)c(C(=O)Nc3ccnc(Cl)c3)c2)=C(C)C1=O [Example 227, N-(2-Chloropyridin-4-yl)-5-(5,6-dimethoxy-3-methyl-1,4-benzoquinon-2-yl)methyl-2-hydroxybenzamide] | –
59 µg/mL | 209.5 to 211.5 | COC1=C(OC)C(=O)C(Cc2ccc(O)c(C(=O)Nc3cc(OC)ncn3)c2)=C(C)C1=O [Example 229, N-(6-Methoxypyrimidin-4-yl)-5-(5,6-dimethoxy-3-methyl-1,4-benzoquinon-2-yl)methyl-2-hydroxybenzamide] | –
